# Key:
# [1] = tested on: co-cultivated corn embryos; assay: Selection of Agrobacterium co-cultivated corn embryos on glyphosate-containing medium; format: cell-based, Zea mays; settings: 540 mg/l glyphosate, DN62540RR medium, Agrobacterium-mediated DNA delivery
# Protocol: Transformation can also be accomplished using Agrobacterium-mediated DNA delivery. In this case, the transformation and regeneration are performed according to the methods as described in U.S. patent application Ser. No. 09/203,679, which is herein incorporated by reference. Briefly, after culturing on DN62A0S20GLC (Table 2) for five days, co-cultivated embryos are transferred to DN62ALC180RR medium which contains 180 mg/l glyphosate (Table 3). After two 14-day passages on this medium, actively growing tissue is transferred to DN62540RR medium containing 540 mg/l glyphosate (Table 3). […] Regeneration is carried out as described in U.S. Ser. No. 09/203,679.
# [2] = tested on: regenerated soybean plants transformed with mutant epm1 and/or mutant epm2; assay: Glyphosate spray of regenerated transgenic soybean plants and progenies; format: in vivo; settings: sprayed at commercial rates, greenhouse
# Excerpt: The Bam HI/Sac II fragment (SEQ ID NO: 2) of epm1 vector and the Eco RI fragment (SEQ ID NO: 4) of epm2 vector were used to transform soybean embryogenic callus using an aerosol beam injector as described in U.S. patent application Ser. No. 09/450,226, which is incorporated herein by reference. These fragments comprised mutant epm1 and mutant epm2 which encode (putative) glyphosate-resistant EPSPSs. These fragments were used either alone or, preferably, together.
# The transformed tissue is selected for glyphosate resistance using the method described below. First, the beamed embryogenic callus is maintained for one month on B1-30 3Co5My0.01PA medium.
# The tissue is then transferred to the same medium but now containing 300 mg/l glyphosate. After a number of passages (up to 5 passages, each passage may last for about a month) on this latter medium, resistant clonal material may be identified. After an optional further few passages on B1-30 3Co5My0.01PA medium but containing 500 mg/l glyphosate, the growing tissue is transferred to a regeneration media as described in U.S. Pat. Ser. No. 09/450,226. Regenerated plants are transferred to pots in a greenhouse. […] Progenies are expected to 3:1 for glyphosate resistance as would be expected for Mendelian inheritance of a transgene.
# [3] = tested on: cultured immature corn embryos transformed with SEQ ID NO: 6; assay: Selection of beamed corn embryos on glyphosate-containing medium; format: cell-based, Zea mays; settings: 540 mg/l glyphosate, DN62540RR medium, aerosol beam transformation with SEQ ID NO: 6
# Protocol: The Cla I and Eco RV fragment (SEQ ID NO: 6) of HCEM was introduced into cultured immature corn embryos using an aerosol beam injector according to U.S. patent application Ser. No. 09/450,226. The Cia I-Eco RV fragment comprised the glyphosate-resistant EPSPS coding sequence.
# Selection was carried out as follows: the beamed embryos were allowed to remain on DN62A0S20G medium for 5 days.
# The beamed embryos were then transferred to DN62A100RR—a medium containing 100 mg/l glyphosate. After two 14-day passages on DN62A100RR, actively growing tissue is transferred to DN62A300RR medium which contains 300 mg/l (Table 3). After two 14-day passages on this medium, tissue was finally transferred to DN62540RR medium which contains 540 mg/i glyphosate (Table 3). […] Regeneration is carried out as described in U.S. patent application Ser. No. 09/450,226.
smiles,measurement,setting,value
"O=C(O)CNCP(=O)(O)O [glyphosate, N-phosphonomethylglycine]",growth of stably transformed tissue on glyphosate medium,[1],continued growth
same,resistance of regenerated plants and progenies to glyphosate spray,[2],complete resistance
same,growth of stably transformed tissue on glyphosate medium,[3],continued growth

# From patent US7626077B2, “Glyphosate-resistant plants” (Mertec LLC, priority 2002, dated 2009)
